Source: US8106071B2, “Compositions for treating hyperproliferative vascular disorders and cancers” (Biobud Co., Ltd., priority 2007, dated 2012)

Tests used:
[1] = system: Human vascular smooth muscle cells (SMC); experiment: Inhibition of vascular smooth muscle cell proliferation (PDGF-stimulated, WST-1); format: cell-based; conditions: 5 ng/ml PDGF, 48-hr treatment
Procedure: Human vascular smooth muscle cells (SMC, Bio-whittaker, USA) were plated in 100 μl of DMEM (Dulbelcco's Modified Eagle Medium) containing 10% FBS (fetal bovine serum) in 96-well plates at 5×10^3 cells/well and cultured for 24 hr at 37° C. under 10% CO2 atmosphere. Afterwards, cells were starved in 100 μl of DMEM containing 0.2% FBS for 72 hr. Then, cells were incubated in 100 μl of DMEM containing 5% FBS supplemented with 5 ng/ml PDGF (platelet derived growth factor, ProSpec, Israel) and then treated with indicated concentrations of chemicals in DMSO synthesized in Examples. The final concentration of DMSO was adjusted to 1%. After 48-hr treatment, medium was changed with a fresh 5% FBS DMEM and 10 μl/well of premix WST-1 (Takara, Japan) was added for analyzing cell proliferation, followed by 2-hr incubation. Using a ELISA microplate reader, the OD (optical density) values at 450 nm were measured. Compared with no-treatment control, the compounds of this invention were evaluated in terms of their cell proliferation activity.

[2] = system: NCI-H460 (lung cancer cell line); experiment: Cytotoxicity to tumor cells (WST-1), NCI-H460; format: cell-based
Procedure: (§1) To verify whether the compounds of this invention could be used as anticancer agents, their cytotoxicity against tumor cells were examined. NCI-H460 (lung cancer cell line, ATCC, USA) and MDA-MB 435S (breast cancer cell line, ATCC, USA) were used. The cancer cell lines were plated in 100 μl of DMEM (Dulbelcco's Modified Eagle Medium) containing 10% FBS (fetal bovine serum) in 96-well plates at 5×10^3 cells/well and cultured for 24 hr at 37° C. under 10% CO2 atmosphere. After change of medium with 100 μl of DMEM containing 5% FBS, cells were treated with the indicated concentration of the compounds in DMSO. The final concentration of DMSO in medium was adjusted to 1%. Following 48-hr treatment, medium was changed with a fresh 5% FBS DMEM and 10 μl/well of premix WST-1 (Takara, Japan) was added for analyzing cell proliferation, followed by 2-hr incubation. Using a ELISA microplate reader, the OD (optical density) values at 450 nm were measured. Compared with no-treatment control, the compounds of this invention were evaluated in terms of their cytotoxicity to cancer cell lines.

[3] = system: MDA-MB 435S (breast cancer cell line); experiment: Cytotoxicity to tumor cells (WST-1), MDA-MB 435S; format: cell-based; conditions: 48-hr treatment
Procedure: as §1

cancer cell lines = experiment: Cytotoxicity to tumor cells (WST-1), cancer cell lines collectively; format: cell-based; conditions: cancer cell lines (NCI-H460, MDA-MB 435S) not distinguished in the sentence; read-out: IC50 against cancer cell lines
Procedure: as §1

[4] = system: neointima thickening of balloon-injured left common carotid artery; experiment: Inhibition of restenosis using balloon injury of carotid artery; conditions: Sprague-Dawley rats, intraperitoneal, 2 weeks after balloon injury
Procedure: To examine restenosis inhibition effects of the present compounds, rat restenosis models were constructed using balloon injury of carotid artery.
Sprague-Dawley male rats with body weights of 350±30 g (12-14 week age, DaehanBiolink, Inc., Korea) were adapted to surrounding environments for one week. For each experiment, 7-10 rats were used. Rats were anesthetized by intraperitoneal administration of a mixture of ketamine (70 mg/kg) and xylazine hydrochloride (33 mg/kg) and their (left common carotid artery, CCA) and branches of internal carotid artery (ICA) and external carotid artery (ECA) were exposed by neck central compartment dissection. The proximal portion of the left common carotid artery and distal portion of the internal carotid artery were temporarily ligated with suture to block bloodstream, the distal portion of the external carotid artery was ligated. The wall of the external carotid artery between both sutures was partially dissected. 2F Fogarty balloon (Edwards Lifesciences) was inserted and the ligation of the left common carotid artery was then unraveled, followed by advancing the balloon along the direction of the ascending aorta. The balloon was inflated and pulled out at the extent that resistance was allowed at the terminal portion of the common carotid artery of the aortic arch, such that the lesion of the left common carotid artery was induced. […]

[5] = Homo sapiens, NCI-H460, 48-hr treatment

Structure (SMILES)	IC50 [1]	IC50 ([2]; 48-hr treatment)	IC50 [3]	IC50 [2, 5]	IC50 ([3]; Homo sapiens, MDA-MB-435S)	IC50 (cancer cell lines)	neointima thickening compared with the non-balloon-injured right common carotid artery ([4]; histology (FIG. 1c vs FIG. 1a))	reduced neointima thickening compared with the balloon-injured left common carotid artery ([4]; dispersed in polyoxyethylated castor oil, histology (FIG. 1c vs FIG. 1b))
CC(=O)c1c(Nc2ccc(Br)cc2)[nH]c2cc(Br)cc(Br)c2c1=O [BD001]	210 nM	1500 nM	1800 nM	–	–	–	–	–
CC(=O)c1c(Nc2ccc(Br)cc2Cl)[nH]c2c([N+](=O)[O-])cc(Cl)cc2c1=O [BD002]	–	400 nM	300 nM	–	–	–	–	–
CC(=O)c1c(Nc2ccc(F)c(F)c2F)[nH]c2c(Cl)ccc(C)c2c1=O [BD003]	–	400 nM	600 nM	–	–	–	–	–
CC(=O)c1c(Nc2ccc(F)c(F)c2F)[nH]c2c(F)cc(F)cc2c1=O [BD004]	–	850 nM	900 nM	–	–	–	–	–
CC(=O)c1c(Nc2ccc(F)cc2Cl)[nH]c2c(Cl)ccc(C)c2c1=O [BD005]	280 nM	600 nM	25000 nM	–	–	–	–	–
CC(=O)c1c(Nc2ccc(C)cc2)[nH]c2c([N+](=O)[O-])cccc2c1=O [BD006]	800 nM	1500 nM	1100 nM	–	–	–	–	–
CC(=O)c1c(Nc2ccc(F)cc2)[nH]c2c(F)cc(F)cc2c1=O [BD007]	290 nM	1600 nM	1100 nM	–	–	–	–	–
CC(=O)c1c(Nc2cccc(Cl)c2)[nH]c2c(C)cccc2c1=O [BD008]	1640 nM	7200 nM	6400 nM	–	–	–	–	–
CC(=O)c1c(Nc2cccc(F)c2)[nH]c2c(Cl)ccc(F)c2c1=O [BD009]	625 nM	2600 nM	5200 nM	–	–	–	–	–
CC(=O)c1c(Nc2ccc(Cl)cc2Cl)[nH]c2c(Cl)ccc([N+](=O)[O-])c2c1=O [BD010]	6500 nM	25000 nM	12000 nM	–	–	–	–	–
O=C(Nc1ccc(Cl)cc1Cl)c1c(Nc2ccccc2)[nH]c2c(Cl)cc(Cl)cc2c1=O [BD030, 6,8-dichloro-4-oxo-2-phenylamino-1,4-dihydro-quinoline-3-carboxylic acid (2,4-dichloro-phenyl)-amide]	–	–	–	1000 nM	300 nM	< 1000 nM	slightly increased neointima thickening	about 80%
O=C(Nc1ccc(Cl)cc1Cl)c1c(Nc2ccc(Cl)cc2Cl)[nH]c2c(Cl)cc(Cl)cc2c1=O [BD031, 6,8-dichloro-2-(2,4-dichloro-phenylamino)-4-oxo-1,4-dihydro-quinoline-3-carboxylic acid (2,4-dichloro-phenyl)-amide]	–	–	–	210 nM	< 160 nM	< 1000 nM	–	–
CCC(=O)c1c(Nc2ccc(Cl)cc2F)[nH]c2c(Cl)ccc([N+](=O)[O-])c2c1=O [BD032]	140 nM	3300 nM	3500 nM	–	–	–	–	–
CCC(=O)c1c(Nc2cccc(Cl)c2Cl)[nH]c2c(Cl)ccc([N+](=O)[O-])c2c1=O [BD033]	137 nM	3200 nM	4000 nM	–	–	–	–	–
CCC(=O)c1c(Nc2ccc(F)c(F)c2)[nH]c2c(Cl)ccc([N+](=O)[O-])c2c1=O [BD034]	127 nM	3900 nM	1600 nM	–	–	–	–	–
